ChEMBL document CHEMBL3217738, “Preparation of blood-brain barrier-permeable paclitaxel-carrier conjugate and its chemotherapeutic activity in the mouse glioblastoma model” (Medchemcomm, 2011)
The source made the active and inactive calls. The rule behind the calls is not given here.

Key:
RAW264.7 [1] = assay: Cytotoxicity against mouse RAW264.7 cells assessed as cell viability at 100 uM after 48 hrs by MTT assay relative to control; format: functional; settings: RAW264.7, 48 h, read-out: Activity
HeLa [2] = assay: Cytotoxicity against human HeLa cells assessed as cell viability at 100 uM after 48 hrs by MTT assay relative to control; format: functional; settings: read-out: Activity
RAW264.7 [3] = assay: Cytotoxicity against mouse RAW264.7 cells assessed as cell viability at 1 uM after 48 hrs by MTT assay relative to control; format: functional; settings: RAW264.7, 48 h, read-out: Activity
HeLa [4] = assay: Cytotoxicity against human HeLa cells assessed as cell viability at 1 uM after 48 hrs by MTT assay relative to control; format: functional; settings: read-out: Activity
[5] = Cytotoxicity against African green monkey COS7 cells assessed as cell viability at 1 uM after 48 hrs by MTT assay relative to control; format: cell-based, COS-7; settings: chlorocebus aethiops, read-out: Activity
RAW264.7 [6] = assay: Cytotoxicity against mouse RAW264.7 cells assessed as cell viability at 10 uM after 48 hrs by MTT assay relative to control; format: functional; settings: RAW264.7, 48 h, read-out: Activity
[7] = Antitumor activity against human U87MG cells xenografted in Balb/c nude mouse assessed as reduction in tumor volume at 7.5 mg/kg, po administered twice per week for 2 weeks measured after 4 weeks (reference value: 25 +/- 2.6 mm3); format: functional, U-87MG ATCC
RAW264.7 [8] = assay: Cytotoxicity against mouse RAW264.7 cells assessed as cell viability at 0.1 uM after 48 hrs by MTT assay relative to control; format: functional; settings: RAW264.7, 48 h, read-out: Activity
[9] = Cytotoxicity against African green monkey COS7 cells assessed as cell viability at 0.1 uM after 48 hrs by MTT assay relative to control; format: cell-based, COS-7; settings: chlorocebus aethiops, read-out: Activity
HeLa [10] = assay: Cytotoxicity against human HeLa cells assessed as cell viability at 0.1 uM after 48 hrs by MTT assay relative to control; format: functional; settings: read-out: Activity
[11] = Cytotoxicity against African green monkey COS7 cells assessed as cell viability at 100 uM after 48 hrs by MTT assay relative to control; format: cell-based, COS-7; settings: chlorocebus aethiops, read-out: Activity
HeLa [12] = assay: Cytotoxicity against human HeLa cells assessed as cell viability at 10 uM after 48 hrs by MTT assay relative to control; format: functional; settings: read-out: Activity
[13] = Cytotoxicity against African green monkey COS7 cells assessed as cell viability at 10 uM after 48 hrs by MTT assay relative to control; format: cell-based, COS-7; settings: chlorocebus aethiops, read-out: Activity
Liver = assay: Drug uptake in liver of C57BL/6 mouse at 115.6 mg/kg, ip after 20 mins by fluorescence microscopy; format: ADME, organism-based; parameters: dose 115.6 mg/kg, route intraperitoneal; settings: in vivo
Kidney = assay: Drug uptake in kidney of C57BL/6 mouse at 115.6 mg/kg, ip after 20 mins by fluorescence microscopy; format: ADME, organism-based; parameters: dose 115.6 mg/kg, route intraperitoneal; settings: in vivo
Heart = assay: Drug uptake in heart muscle of C57BL/6 mouse at 115.6 mg/kg, ip after 20 mins by fluorescence microscopy; format: ADME, organism-based, Muscle tissue; parameters: dose 115.6 mg/kg, route intraperitoneal; settings: in vivo
Spleen = assay: Drug uptake in spleen of C57BL/6 mouse at 115.6 mg/kg, ip after 20 mins by fluorescence microscopy; format: ADME, organism-based; parameters: dose 115.6 mg/kg, route intraperitoneal; settings: in vivo
Brain = assay: Drug uptake in brain of C57BL/6 mouse at 115.6 mg/kg, ip after 20 mins by fluorescence microscopy; format: ADME, organism-based; parameters: dose 115.6 mg/kg, route intraperitoneal; settings: in vivo
Lung = assay: Drug uptake in lung of C57BL/6 mouse at 115.6 mg/kg, ip after 20 mins by fluorescence microscopy; format: ADME, organism-based; parameters: dose 115.6 mg/kg, route intraperitoneal; settings: in vivo
U-87 MG = assay: Induction of apoptosis in human U87MG cells xenografted in mouse at 3.75 to 7.5 mg/kg, po administered twice per week for 2 weeks measured after 4 weeks by TUNEL-staining based immunohistochemical analysis relative to control; format: functional, organism-based; settings: U-87MG ATCC
U-87MG ATCC [14] = assay: Antitumor activity against human U87MG cells xenografted in mouse assessed as decrease in microvessel density in tumor bed by measuring CD31-positive cells at […] 7.5 mg/kg, po administered twice per week for 2 weeks measured after 4 weeks by immunohistochemical analysis relative to control; format: functional, organism-based
[15] = Antitumor activity against human U87MG cells xenografted in Balb/c nude mouse orthotopic model assessed as reduction in tumor volume at 3.75 mg/kg, po administered twice per week for 2 weeks measured after 4 weeks (reference value: 25 +/- 2.6 mm3); format: functional, U-87MG ATCC
U-87MG ATCC [16] = assay: Antitumor activity against human U87MG cells xenografted in mouse assessed as tumor growth inhibition by measuring PCNA-positive cells at […] 7.5 mg/kg, po administered twice per week for 2 weeks measured after 4 weeks by immunohistochemical analysis relative to control; format: functional, organism-based

Compound	viability at 100 µM (RAW264.7 [1])	viability at 100 µM (HeLa [2])	viability at 1 µM (RAW264.7 [3])	viability at 1 µM (HeLa [4])	viability at 48 h, 1 µM [5]	viability at 10 µM (RAW264.7 [6])	Activity [7]	viability at 0.1 µM (RAW264.7 [8])	viability at 48 h, 0.1 µM [9]	viability at 0.1 µM (HeLa [10])	viability at 48 h, 100 µM [11]	viability at 10 µM (HeLa [12])	viability at 48 h, 10 µM [13]	also measured
CC(=O)O[C@H]1C(=O)[C@@]2(C)[C@H]([C@H](OC(=O)c3ccccc3)[C@]3(O)C[C@H](OC(=O)[C@H](O)[C@@H](NC(=O)c4ccccc4)c4ccccc4)C(C)=C1C3(C)C)[C@]1(OC(C)=O)CO[C@@H]1C[C@@H]2O [PACLITAXEL]	13.3%	56.5%	39.2%	86.3%	66.5%	49.9%	19.4 mm3	39.3%	65.4%	76.3%	41.5%	96.1%	71.9%	
CC(=O)O[C@H]1C(=O)[C@@]2(C)[C@H]([C@H](OC(=O)c3ccccc3)[C@]3(O)C[C@H](OC(=O)[C@H](OC(=O)CCC(=O)OC[C@H](OC(=O)CCCCCN(CCCNC(=N)N)CCCNC(=N)N)[C@@H](OC(=O)CCCCCN(CCCNC(=N)N)CCCNC(=N)N)[C@H](OC(=O)CCCCCN(CCCNC(=N)N)CCCNC(=N)N)[C@@H](COC(=O)CCCCCNC(=S)Nc4ccc(-c5c6ccc(=O)cc-6oc6cc(O)ccc56)c(C(=O)O)c4)OC(=O)CCCCCN(CCCNC(=N)N)CCCNC(=N)N)[C@@H](NC(=O)c4ccccc4)c4ccccc4)C(C)=C1C3(C)C)[C@]1(OC(C)=O)CO[C@@H]1C[C@@H]2O.Cl														Drug uptake (Liver): Active; Drug uptake (Kidney): Active; Drug uptake (Heart): Active; Drug uptake (Spleen): Active; Drug uptake (Brain): Active; Drug uptake (Lung): Active
CC(=O)O[C@H]1C(=O)[C@@]2(C)[C@H]([C@H](OC(=O)c3ccccc3)[C@]3(O)C[C@H](OC(=O)[C@H](OC(=O)CCC(=O)OC[C@@H](OC(=O)CCCCCN(CCCNC(=N)N)CCCNC(=N)N)[C@@H](OC(=O)CCCCCN(CCCNC(=N)N)CCCNC(=N)N)[C@H](OC(=O)CCCCCN(CCCNC(=N)N)CCCNC(=N)N)[C@H](CO)OC(=O)CCCCCN(CCCNC(=N)N)CCCNC(=N)N)[C@@H](NC(=O)c4ccccc4)c4ccccc4)C(C)=C1C3(C)C)[C@]1(OC(C)=O)CO[C@@H]1C[C@@H]2O.Cl	2.6%	3.8%	111%	78%	92.4%	53.4%	4.7 mm3	117%	96.2%	87.4%	20.6%	83.1%	94.5%	Activity (U-87 MG): Active; Activity (U-87MG ATCC [14]): Active; Activity [15]: 6.1 mm3; TGI (U-87MG ATCC [16]): Active
